The experiment concerns P388 leukemia ip, CD2F1 mice, survival T/C. The experiment can be described thus: NCI In Vivo Anticancer Drug Screen. Data for tumor model P388 Leukemia (intraperitoneal) in CD2F1 (CDF1) mice. The following applies: endpoint: median survival time, higher = longer survival. The gist of the method: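 Mice carrying the transplanted tumor received test compound or vehicle. Survival was recorded in each group, and the value is the treated-group measurement divided by that of the vehicle-treated control group.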

Several values for one entry are separate records, joined by “and”; a condition that tells them apart may be missing. Equal entries are not always repeated. Inconclusive results and toxic doses are left out. Peptide text beside a SMILES is read from it.

Turning to `CC[C@](O)(C(=O)O)c1cc2n(c(=O)c1CO)Cc1cc3ccccc3nc1-2`, the T/C runs as follows: (dose: 0.5 mg/kg/injection, schedule: Q01DX009 (ip), vehicle: saline with Tween-80) 118 % of control; (dose: 0.5 mg/kg/injection, schedule: Q01DX009 (ip), vehicle: water) 120 % of control; (dose: 1.57 mg/kg/injection, schedule: Q04DX003 (ip), vehicle: other) 116 % of control and 119 % of control; (dose: 2.0 mg/kg/injection, schedule: Q01DX009 (ip), vehicle: saline sonified) 163 % of control; (dose: 2.0 mg/kg/injection, schedule: Q01DX009 (ip), vehicle: saline with Tween-80) 159 % of control; (dose: 2.0 mg/kg/injection, schedule: Q01DX009 (ip), vehicle: water) 158 % of control. Also, the T/C runs as follows: (dose: 2.5 mg/kg/injection, schedule: Q04DX003 (ip), vehicle: water) 120 % of control; (dose: 4.0 mg/kg/injection, schedule: Q01DX009 (ip), vehicle: saline sonified) 100 % of control; (dose: 4.0 mg/kg/injection, schedule: Q01DX009 (ip), vehicle: saline with Tween-80) 195 % of control; (dose: 4.0 mg/kg/injection, schedule: Q01DX009 (ip), vehicle: water) 207 % of control; (dose: 5.0 mg/kg/injection, schedule: Q04DX003 (ip), vehicle: water) 111 % of control; (dose: 6.25 mg/kg/injection, schedule: Q04DX003 (ip), vehicle: other) 156 % of control and 159 % of control. Further, the T/C is, setting by setting: (dose: 6.25 mg/kg/injection, schedule: Q04DX003 (ip), vehicle: water) 154 % of control; (dose: 8.0 mg/kg/injection, schedule: Q01DX009 (ip), vehicle: water) 100 % of control; (dose: 9.72 mg/kg/injection, schedule: Q04DX002 (ip), vehicle: saline) 108 % of control; (dose: 10.0 mg/kg/injection, schedule: Q04DX003 (ip), vehicle: water) 155 % of control; (dose: 10.8 mg/kg/injection, schedule: Q04DX002 (ip), vehicle: saline) 160 % of control; (dose: 12.5 mg/kg/injection, schedule: Q04DX003 (ip), vehicle: other) 106 % of control and 113 % of control. The T/C (dose: 13.0 mg/kg/injection, schedule: Q04DX003 (ip), vehicle: saline) is 185 % of control; the T/C (dose: 18.0 mg/kg/injection, schedule: Q04DX002 (ip), vehicle: saline) was 159 % of control; the T/C (dose: 20.0 mg/kg/injection, schedule: Q04DX003 (ip), vehicle: water) is 178 % of control and 220 % of control; the T/C (dose: 21.6 mg/kg/injection, schedule: Q04DX003 (ip), vehicle: saline) was 217 % of control; the T/C (dose: 25.0 mg/kg/injection, schedule: Q04DX003 (ip), vehicle: other) was 98 % of control and 90 % of control; the T/C (dose: 25.0 mg/kg/injection, schedule: Q04DX003 (ip), vehicle: water) is 154 % of control. For the same molecule, the T/C runs as follows: (dose: 30.0 mg/kg/injection, schedule: Q04DX002 (ip), vehicle: saline) 177 % of control; (dose: 36.0 mg/kg/injection, schedule: Q04DX003 (ip), vehicle: saline) 233 % of control; (dose: 40.0 mg/kg/injection, schedule: Q04DX003 (ip), vehicle: water) 212 % of control and 94 % of control; (dose: 45.0 mg/kg/injection, schedule: Q04DX002 (ip), vehicle: saline) 157 % of control and 196 % of control; (dose: 50.0 mg/kg/injection, schedule: Q04DX002 (ip), vehicle: saline) 183 % of control; (dose: 60.0 mg/kg/injection, schedule: Q04DX003 (ip), vehicle: saline) 93 % of control. Also, the T/C (dose: 83.3 mg/kg/injection, schedule: Q04DX002 (ip), vehicle: saline) is 91 % of control and the T/C (dose: 128.0 mg/kg/injection, schedule: Q04DX003 (ip), vehicle: saline) is 58 % of control.
As for `NC(N)=NCCCC(N)C(=O)N1CCCC1C(=O)N1CCCC1C(=O)NC(CCCN=C(N)N)C(=O)O` (configuration not stated) (H-RPPR-OH; configuration not given here), the T/C reads like this: (dose: 12.5 mg/kg/injection, schedule: Q01DX005 (ip), vehicle: saline) 100 % of control; (dose: 25.0 mg/kg/injection, schedule: Q01DX005 (ip), vehicle: saline) 105 % of control; (dose: 50.0 mg/kg/injection, schedule: Q01DX005 (ip), vehicle: saline) 101 % of control.
As to `CC(=O)OC1C=CC(=O)C1(O)CO` (configuration not stated), the T/C is 97 % of control (dose: 2.0 mg/kg/injection, schedule: Q01DX009 (ip), vehicle: saline); 98 % of control (dose: 4.0 mg/kg/injection, schedule: Q01DX009 (ip), vehicle: saline); 118 % of control (dose: 8.0 mg/kg/injection, schedule: Q01DX009 (ip), vehicle: saline); 116 % of control (dose: 16.0 mg/kg/injection, schedule: Q01DX009 (ip), vehicle: saline).
As to `COC(=O)c1[nH]cnc1/N=N\N(CCF)CCF`, the T/C was 155 % of control (dose: 44.0 mg/kg/injection, schedule: Q04DX003 (ip), vehicle: saline with Tween-80) and 110 % of control (dose: 66.0 mg/kg/injection, schedule: Q04DX003 (ip), vehicle: saline with Tween-80).
Turning to `COCCOCCOCCOCCOCCN`, the T/C reads like this: (dose: 100.0 mg/kg/injection, schedule: Q04DX003 (ip), vehicle: saline) 100 % of control; (dose: 200.0 mg/kg/injection, schedule: Q04DX003 (ip), vehicle: saline) 100 % of control; (dose: 400.0 mg/kg/injection, schedule: Q04DX003 (ip), vehicle: saline) 104 % of control.
Regarding `CC(C)=CCc1c(C)cc2cc3c(c(O)c2c1O)C(O)=CC(=O)C3(CC=C(C)C)C/C=C(\C)CO` (configuration not stated), the T/C was 103 % of control (dose: 25.0 mg/kg/injection, schedule: Q01DX005 (ip), vehicle: Klucel (hydroxypropylcellulose) (HPC)); 93 % of control (dose: 50.0 mg/kg/injection, schedule: Q01DX005 (ip), vehicle: Klucel (hydroxypropylcellulose) (HPC)); 97 % of control (dose: 100.0 mg/kg/injection, schedule: Q01DX005 (ip), vehicle: Klucel (hydroxypropylcellulose) (HPC)).
As for `O=C1CCC(c2n[nH]c(=S)n2-c2ccccc2)N1Cc1ccccc1` (configuration not stated), the T/C is, setting by setting: (dose: 60.0 mg/kg/injection, schedule: Q01DX005 (ip), vehicle: saline with Tween-80) 101 % of control; (dose: 120.0 mg/kg/injection, schedule: Q01DX005 (ip), vehicle: saline with Tween-80) 94 % of control; (dose: 240.0 mg/kg/injection, schedule: Q01DX005 (ip), vehicle: saline with Tween-80) 90 % of control.
Take `Cn1c(=O)c2nc(-c3ccc(Cl)c(Cl)c3)oc2n(C)c1=O`: the T/C by setting is: (dose: 50.0 mg/kg/injection, schedule: Q01DX009 (ip), vehicle: saline) 109 % of control; (dose: 100.0 mg/kg/injection, schedule: Q01DX009 (ip), vehicle: saline) 111 % of control; (dose: 200.0 mg/kg/injection, schedule: Q01DX009 (ip), vehicle: saline) 100 % of control.
Take `CC(O)CCC(=O)c1ccoc1` (configuration not stated): the T/C runs as follows: (dose: 1.87 mg/kg/injection, schedule: Q01DX005 (ip), vehicle: saline) 97 % of control; (dose: 3.75 mg/kg/injection, schedule: Q01DX005 (ip), vehicle: saline) 100 % of control; (dose: 7.5 mg/kg/injection, schedule: Q01DX005 (ip), vehicle: saline) 100 % of control and 96 % of control; (dose: 15.0 mg/kg/injection, schedule: Q01DX005 (ip), vehicle: saline) 100 % of control and 93 % of control; (dose: 30.0 mg/kg/injection, schedule: Q01DX005 (ip), vehicle: saline) 109 % of control.
As for `O=C(O)c1ccc2c(c1Sc1ccc(Cl)cc1)C(=O)c1ccccc1C2=O`, the T/C runs as follows: (dose: 60.0 mg/kg/injection, schedule: Q01DX005 (ip), vehicle: Klucel (hydroxypropylcellulose) (HPC)) 100 % of control; (dose: 120.0 mg/kg/injection, schedule: Q01DX005 (ip), vehicle: Klucel (hydroxypropylcellulose) (HPC)) 90 % of control; (dose: 240.0 mg/kg/injection, schedule: Q01DX005 (ip), vehicle: Klucel (hydroxypropylcellulose) (HPC)) 99 % of control.
On to `O=c1cc([N+](=O)[O-])c2c([nH]1)CCC2`, for which the T/C reads like this: (dose: 50.0 mg/kg/injection, schedule: Q01DX005 (ip), vehicle: saline with Tween-80) 97 % of control; (dose: 100.0 mg/kg/injection, schedule: Q01DX005 (ip), vehicle: saline with Tween-80) 94 % of control; (dose: 200.0 mg/kg/injection, schedule: Q01DX005 (ip), vehicle: saline with Tween-80) 90 % of control.
Turning to `N#CC1=CN=C2C=CC=C3N=C(C(Cl)(Cl)Cl)N=C1N32`, the T/C was 92 % of control (dose: 15.0 mg/kg/injection, schedule: Q01DX005 (ip), vehicle: Klucel + Tween-80); 87 % of control (dose: 30.0 mg/kg/injection, schedule: Q01DX005 (ip), vehicle: Klucel + Tween-80); 93 % of control (dose: 60.0 mg/kg/injection, schedule: Q01DX005 (ip), vehicle: Klucel + Tween-80).

Values taken from PubChem BioAssay AID330 (DTP/NCI, 2004).
